The results in this text go back to patent US11857637B2, “Anti-CD25 antibody-maytansine conjugates and methods of use thereof” (priority 2019, dated 2024).

Experiment [1] concerns CD25-positive leukemia and lymphoma cell lines, SU-DHL-1, HDLM-2, EoL-1, L-540, and Karpas 299. Description: In vitro cytotoxicity, range over the five cell lines. It is filed as cell-based. The note with it: read-out: IC50 concentrations (range across assays). As for the experimental part: (§1) The CD25-positive leukemia and lymphoma cell lines, SU-DHL-1, HDLM-2, EoL-1, L-540, and Karpas 299, were obtained from the ATCC and DSMZ cell banks, or were tested at Crown Bioscience, Inc. The cells were maintained in RPMI-1640 medium (Cellgro) supplemented with 10 or 20% fetal bovine serum (Invitrogen) and Glutamax (Invitrogen). 24 h prior to plating, cells were passaged to ensure log-phase growth. On the day of plating, 5000 cells/well were seeded onto 96-well plates in 100 μL normal growth medium supplemented with 10 IU penicillin and 10 μg/mL streptomycin (Cellgro). Cells were treated at various concentrations with 20 μL of diluted analytes, and the plates were incubated at 37° C. in an atmosphere of 5% CO2. After 5 d, 100 μL/well of Cell Titer-Glo reagent (Promega) was added, and luminescence was measured using a Molecular Devices SpectraMax M5 plate reader. GraphPad Prism software was used for data analysis.

Another experiment concerns EoL-1 cells. The experiment in a line: In vitro cytotoxicity (Cell Titer-Glo, 5 d). It is filed as cell-based. The note with it: EoL-1 cell line, 5 d incubation, FIG. 8. As for the experimental part:
as §1
Background: Cellular ATP, detected with luciferase, serves as a proxy for viable cell number.

The next experiment has as its system HDLM-2 cells. The experiment in a line: In vitro cytotoxicity (Cell Titer-Glo, 5 d). The experiment is classed as cell-based. Particulars: HDLM-2 cell line, 5 d incubation, FIG. 7. As for the experimental part: as §1
The next experiment has as its system Karpas 299 cells. The experiment in a line: In vitro cytotoxicity (Cell Titer-Glo, 5 d). The note with it: Karpas 299 cell line, 5 d incubation, FIG. 10. It is filed as cell-based. The method, then:
as §1

For another experiment, the system named is L-540 cells. The experiment in a line: In vitro cytotoxicity (Cell Titer-Glo, 5 d). The experiment is classed as cell-based. Particulars: L-540 cell line, 5 d incubation, FIG. 9. The method, then:
as §1

Another experiment concerns SU-DHL-1 cells. The experiment in a line: In vitro cytotoxicity (Cell Titer-Glo, 5 d). Particulars: SU-DHL-1 cell line, 5 d incubation, FIG. 6. It is filed as cell-based. The method, then: as §1
A further experiment concerns Karpas 299 xenograft. Description: Karpas 299 xenograft study. Particulars: 10 mg/kg intravenously, single dose or qwk×4; at 28 days; subcutaneous Karpas 299 tumors, FIG. 11. The experiment is classed as in vivo, Female CB17.SCID mice. The method, then:
Female CB17.SCID mice (6/group) were inoculated subcutaneously with 5×10^6 Karpas 299 cells. Treatment began when the tumors reached an average of 205 mm^3, at which time the animals were dosed intravenously with vehicle alone or the anti-CD25 HIPS-4AP-maytansine conjugate (10 mg/kg). One group received a single dose of the anti-CD25 HIPS-4AP-maytansine conjugate, while another group was dosed once per week for a total of four doses (qwk×4). The animals were monitored twice weekly for body weight and tumor size. Animals were euthanized when tumors reached 2000 mm^3.

pIC50: −log10 of the molar value. Read-outs that look alike come from different tables or passages of the source.

Take `COc1cc2cc(c1Cl)N(C)C(=O)C[C@H](OC(=O)[C@H](C)N(C)C(C)=O)[C@]1(C)O[C@H]1[C@H](C)[C@@H]1C[C@@](O)(NC(=O)O1)[C@H](OC)/C=C/C=C(\C)C2` [free maytansine, maytansine]: the pIC50 in experiment [1] (120 h) was 9.72 to 10.52.

For “anti-CD25 HIPS-4AP-maytansine conjugate: C-terminally aldehyde-tagged anti-CD25 antibody (daclizumab) conjugated to a maytansine payload attached to a HIPS-4AP linker; DAR 1.75-1.84”, the pIC50 is 10.15 in the experiment with EoL-1 cells; 10.22 in the experiment with HDLM-2 cells; 9.31 with Karpas 299 cells; 9.37 in the experiment on L-540 cells; 9.62 in the experiment on SU-DHL-1 cells; 9.31 to 10.22 in experiment [1] (range over all five tested cell lines, 5 d incubation). Moreover, in the experiment on Karpas 299 xenograft, the “detectable tumors at median time to endpoint of vehicle control groups” value was “none of the animals that had been dosed with the anti-CD25 HIPS-4AP-maytansine conjugate had detectable tumors”.
